A word on the IC50: it is the concentration at which inhibition is half-maximal.

Numbered stars: 1 amine (or outer) side, 2 acyl side, 3 side chain; on linkers, the order of the positions; unused ones are H or OH. Bridge positions count the residues as written; N and C are the ends. Square brackets hold non-standard residues; d marks the D form. Side chains are listed from the residue outwards. Peptide text beside a SMILES is read from it. * marks the point of attachment. X6 = CC(C)C[C@H](N[*:1])C(=O)C1C[C@H](O)C[C@H]1C(=O)[*:2]; Trp(1-CH2CO2Me) = COC(=O)Cn1cc(C[C@H](N)C(=O)O)c2ccccc21; Trp(1-CH2COOH) = N[C@@H](Cc1cn(CC(=O)O)c2ccccc12)C(=O)O; Trp(1-Me) = Cn1cc(C[C@H](N)C(=O)O)c2ccccc21; X12 = CNC(=S)NCC[C@H](N[*:1])C(=O)[*:2]; Phe(4-F) = N[C@@H](Cc1ccc(F)cc1)C(=O)O; X11 = CNC(=S)NC[C@H](N[*:1])C(=O)[*:2]; NHCH2CHPh2 = c1ccc(C(CN*)c2ccccc2)cc1; Dab(CONH2) = NC(=O)NCC[C@H](N)C(=O)O; NHCHPh2 = c1ccc(C(N*)c2ccccc2)cc1; Hyp = O=C(O)[C@@H]1C[C@@H](O)CN1; NMeNle = CCCC[C@H](NC)C(=O)O; NMeC = CN[C@@H](CS)C(=O)O; Pip = O=C(O)[C@@H]1CCCCN1; NMeA = CN[C@@H](C)C(=O)O; Dab = NCC[C@H](N)C(=O)O; Dap = NC[C@H](N)C(=O)O; Boc = CC(C)(C)OC(=O)*; CO = O=C([*:1])[*:2]; Piv = CC(C)(C)C(=O)*; X1 = CC(=O)NC(=O)*

In the test the target is T1, PD-1/PD-L1 (Homo sapiens, UniProt Q9NZQ7).
T1 construct: TVMV protease site linker (C); made in house; host or cells: HEK293T cells
Put plainly: PD-1/PD-L1 Homogenous Time-Resolved Fluorescence (HTRF) binding assay. To be noted: PD-L1-His 10 nM final, PD-1-Ig 20 nM final; inhibitors pre-incubated with PD-L1-His for 15 m. A digest of the protocol:
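Compounds pre-incubated 15 min with human PD-L1(18-239)-His (10 nM final), then PD-1(25-167)-Ig (20 nM final) added for 15 min, in dPBS with 0.1% BSA and 0.05% Tween-20. Eu-cryptate anti-Ig (1 nM) and APC anti-His (20 nM) added, 30 min equilibration, 665/620 nm ratio read; IC50 reported.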
The compound `CCCC[C@H]1C(=O)N(C)[C@@H](CCCC)C(=O)N[C@@H](CC(C)C)C(=O)N[C@H](C(=O)NCC(N)=O)CSCC(=O)N[C@@H](Cc2ccc(O)cc2)C(=O)N(C)[C@@H](C)C(=O)N[C@@H](CC(N)=O)C(=O)N2CCC[C@H]2C(=O)N[C@@H](CNC(=O)NC(c2ccccc2)c2ccccc2)C(=O)N[C@@H](CC(C)C)C(=O)N2C[C@H](O)C[C@H]2C(=O)N[C@@H](Cc2c[nH]c3ccccc23)C(=O)N[C@@H](CCNC(=O)NC(c2ccccc2)c2ccccc2)C(=O)N[C@@H](Cc2cn(CC(=O)O)c3ccccc23)C(=O)N1C` [Example 1037] ({CH2CO}-Y[NMeA]NP[Dap]([CO-NHCHPh2])L[Hyp]W[Dab]([CO-NHCHPh2])[Trp(1-CH2COOH)][NMeNle][NMeNle]LCG-NH2; thioether N-14) returned a 50% inhibitory concentration (IC50) of 5.1 nM.

`CCCC[C@H]1C(=O)N(C)[C@@H](CCCC)C(=O)N[C@@H](CC(C)C)C(=O)N[C@H](C(=O)NCC(N)=O)CSCC(=O)N[C@@H](Cc2ccc(O)cc2)C(=O)N(C)[C@@H](C)C(=O)N[C@@H](CC(N)=O)C(=O)N2CCC[C@H]2C(=O)N[C@@H](CNC(=O)OC(C)(C)C)C(=O)N[C@@H](CC(C)C)C(=O)C2C[C@H](O)C[C@H]2C(=O)N[C@@H](Cc2c[nH]c3ccccc23)C(=O)N[C@@H](CCNC(N)=O)C(=O)N[C@@H](Cc2cn(CC(=O)OC)c3ccccc23)C(=O)N1C` (stereo partly shown) [Example 2001] ({CH2CO}-Y[NMeA]NP[Dap](Boc)[X6]W[Dab(CONH2)][Trp(1-CH2CO2Me)][NMeNle][NMeNle]LCG-NH2; thioether N-13) showed an IC50 of 3.4 nM. Against the preceding compound, the IC50 is about 1.5-fold lower.

`CCCC[C@H]1C(=O)N(C)[C@@H](CCCC)C(=O)N[C@@H](CCC(N)=O)C(=O)N[C@H](C(N)=O)CSCC(=O)N[C@@H](Cc2ccc(F)cc2)C(=O)N2CCCC[C@H]2C(=O)N[C@@H](CC(N)=O)C(=O)N2CCC[C@H]2C(=O)N[C@@H](CNC(=O)C(C)(C)C)C(=O)N[C@@H](CC(C)C)C(=O)N2C[C@H](O)C[C@H]2C(=O)N[C@@H](Cc2c[nH]c3ccccc23)C(=O)N[C@@H](CCN)C(=O)N[C@@H](Cc2cn(C)c3ccccc23)C(=O)N1C` [Example 20150] ({CH2CO}-[Phe(4-F)][Pip]NP[Dap](Piv)L[Hyp]W[Dab][Trp(1-Me)][NMeNle][NMeNle]QC-NH2; thioether N-14): the IC50 was 12.5 nM. This IC50 lies about 3.7-fold higher than the previous one.

`CCCC[C@H]1C(=O)N(C)[C@@H](CCCC)C(=O)N[C@@H](CC(C)C)C(=O)N(C)[C@H](C(N)=O)CSCC(=O)N[C@@H](Cc2ccc(F)cc2)C(=O)N2CCCC[C@H]2C(=O)N[C@@H](CC(=O)O)C(=O)N2CCC[C@H]2C(=O)N[C@@H](Cc2c[nH]cn2)C(=O)N[C@@H](CC(C)C)C(=O)N2C[C@H](O)C[C@H]2C(=O)N[C@@H](Cc2c[nH]c3ccccc23)C(=O)N[C@@H](CO)C(=O)N[C@@H](Cc2cn(CC(=O)O)c3ccccc23)C(=O)N1C` [Example 10004] ({CH2CO}-[Phe(4-F)][Pip]DPHL[Hyp]WS[Trp(1-CH2COOH)][NMeNle][NMeNle]L[NMeC]-NH2; thioether N-14) came in with an IC50 of 11 nM.

On to `CCCC[C@H]1C(=O)N(C)[C@@H](CCCC)C(=O)N[C@@H](CCC(=O)O)C(=O)N[C@H](C(N)=O)CSCC(=O)N[C@@H](Cc2ccc(F)cc2)C(=O)N2CCCC[C@H]2C(=O)N[C@@H](CC(=O)O)C(=O)N2CCC[C@H]2C(=O)N[C@@H](CNC(=O)C(C)(C)C)C(=O)N[C@@H](CC(C)C)C(=O)N2C[C@H](O)C[C@H]2C(=O)N[C@@H](Cc2c[nH]c3ccccc23)C(=O)N[C@@H](CCN)C(=O)N[C@@H](Cc2cn(CC(=O)O)c3ccccc23)C(=O)N1C` [Example 20170] ({CH2CO}-[Phe(4-F)][Pip]DP[Dap](Piv)L[Hyp]W[Dab][Trp(1-CH2COOH)][NMeNle][NMeNle]EC-NH2; thioether N-14), for which the half-maximal inhibitory concentration (IC50) was 14 nM. This IC50 and that of the compound before are within 1.5-fold of each other.

On to `CCCC[C@H]1C(=O)N(C)[C@@H](CCCC)C(=O)N[C@@H](CC(C)C)C(=O)N[C@H](C(N)=O)CSCC(=O)N[C@@H](Cc2ccc(F)cc2)C(=O)N2CCCC[C@H]2C(=O)N[C@@H](CC(=O)O)C(=O)N2CCC[C@H]2C(=O)N[C@@H](CNC(=O)C(C)(C)C)C(=O)N[C@@H](CC(C)C)C(=O)N2C[C@H](O)C[C@H]2C(=O)N[C@@H](Cc2c[nH]c3ccccc23)C(=O)N[C@@H](CCNC(=O)C(C)(C)C)C(=O)N[C@@H](Cc2cn(CC(=O)O)c3ccccc23)C(=O)N1C` [Example 20250] ({CH2CO}-[Phe(4-F)][Pip]DP[Dap](Piv)L[Hyp]W[Dab](Piv)[Trp(1-CH2COOH)][NMeNle][NMeNle]LC-NH2; thioether N-14), for which the IC50 is 22.9 nM.

`CCCC[C@H]1C(=O)N(C)[C@@H](CCCC)C(=O)N[C@@H](CC(C)C)C(=O)N(C)[C@H](C(N)=O)CSCC(=O)N[C@@H](Cc2ccc(F)cc2)C(=O)N2CCCC[C@H]2C(=O)N[C@@H](CC(=O)N(C)C)C(=O)N2CCC[C@H]2C(=O)N[C@@H](CNC(=O)C(C)(C)C)C(=O)N[C@@H](CC(C)C)C(=O)N2C[C@H](O)C[C@H]2C(=O)N[C@@H](Cc2c[nH]c3ccccc23)C(=O)N[C@@H](CO)C(=O)N[C@@H](Cc2cn(CC(=O)O)c3ccccc23)C(=O)N1C` [Example 20310] ({CH2CO}-[Phe(4-F)][Pip]D(NMe2)P[Dap](Piv)L[Hyp]WS[Trp(1-CH2COOH)][NMeNle][NMeNle]L[NMeC]-NH2; thioether N-14): the IC50 came out at 18 nM.

In turn, `CCCC[C@H]1C(=O)N(C)[C@@H](CCCC)C(=O)N[C@@H](CC(C)C)C(=O)N[C@H](C(=O)NCC(N)=O)CSCC(=O)N[C@@H](Cc2ccc(O)cc2)C(=O)N(C)[C@@H](C)C(=O)N[C@@H](CC(N)=O)C(=O)N2CCC[C@H]2C(=O)N[C@@H](CNC(=O)NCC(c2ccccc2)c2ccccc2)C(=O)N[C@@H](CC(C)C)C(=O)N2C[C@H](O)C[C@H]2C(=O)N[C@@H](Cc2c[nH]c3ccccc23)C(=O)N[C@@H](CCN)C(=O)N[C@@H](Cc2cn(CC(=O)O)c3ccccc23)C(=O)N1C` [Example 1040] ({CH2CO}-Y[NMeA]NP[Dap]([CO-NHCH2CHPh2])L[Hyp]W[Dab][Trp(1-CH2COOH)][NMeNle][NMeNle]LCG-NH2; thioether N-14) displayed an IC50 of 3 nM.

As to `CCCC[C@H]1C(=O)N(C)[C@@H](CCCC)C(=O)N[C@@H](CC(C)C)C(=O)N[C@H](C(=O)NCC(N)=O)CSCC(=O)N[C@@H](Cc2ccc(O)cc2)C(=O)N(C)[C@@H](C)C(=O)N[C@H](CC(N)=O)C(=O)N2CCC[C@H]2C(=O)N[C@@H](CNC(=S)NC)C(=O)N[C@@H](CC(C)C)C(=O)N2C[C@H](O)C[C@H]2C(=O)N[C@@H](Cc2c[nH]c3ccccc23)C(=O)N[C@@H](CCNC(=S)NC)C(=O)N[C@@H](Cc2cn(CC(=O)O)c3ccccc23)C(=O)N1C` [Example 1027] ({CH2CO}-Y[NMeA][dN]P[X11]L[Hyp]W[X12][Trp(1-CH2COOH)][NMeNle][NMeNle]LCG-NH2; thioether N-14), the half-maximal inhibitory concentration (IC50) was 2 nM.

On to `CCCC[C@H]1C(=O)N(C)[C@@H](CCCC)C(=O)N[C@@H](CC(C)C)C(=O)N[C@H](C(=O)NCC(N)=O)CSCC(=O)N[C@@H](Cc2ccc(O)cc2)C(=O)N(C)[C@@H](C)C(=O)N[C@@H](CC(N)=O)C(=O)N2CCC[C@H]2C(=O)N[C@@H](CNC(=O)NC(C)=O)C(=O)N[C@@H](CC(C)C)C(=O)N2C[C@H](O)C[C@H]2C(=O)N[C@@H](Cc2c[nH]c3ccccc23)C(=O)N[C@@H](CCNC(N)=O)C(=O)N[C@@H](Cc2cn(CC(=O)O)c3ccccc23)C(=O)N1C` [Example 1030] ({CH2CO}-Y[NMeA]NP[Dap](X1)L[Hyp]W[Dab(CONH2)][Trp(1-CH2COOH)][NMeNle][NMeNle]LCG-NH2; thioether N-14), for which the concentration for half-maximal inhibition (IC50) came to 4 nM.

In the case of `CCCC[C@H]1C(=O)N(C)[C@@H](CCCC)C(=O)N[C@@H](CC(C)C)C(=O)N[C@H](C(=O)NCC(N)=O)CSCC(=O)N[C@@H](Cc2ccc(O)cc2)C(=O)N(C)[C@@H](C)C(=O)N[C@@H](CC(N)=O)C(=O)N2CCC[C@H]2C(=O)N[C@@H](CNC(=O)NC(C)=O)C(=O)N[C@@H](CC(C)C)C(=O)N2C[C@H](O)C[C@H]2C(=O)N[C@@H](Cc2c[nH]c3ccccc23)C(=O)N[C@@H](CCNC(=O)NC(C)=O)C(=O)N[C@@H](Cc2cn(CC(=O)O)c3ccccc23)C(=O)N1C` [Example 1031] ({CH2CO}-Y[NMeA]NP[Dap](X1)L[Hyp]W[Dab](X1)[Trp(1-CH2COOH)][NMeNle][NMeNle]LCG-NH2; thioether N-14), the IC50 amounted to 4.7 nM.

The compound `CCCC[C@H]1C(=O)N(C)[C@@H](CCCC)C(=O)N[C@@H](C(C)C)C(=O)N[C@H](C(N)=O)CSCC(=O)N[C@@H](Cc2ccc(F)cc2)C(=O)N2CCCC[C@H]2C(=O)N[C@@H](CC(=O)O)C(=O)N2CCC[C@H]2C(=O)N[C@@H](CNC(=O)C(C)(C)C)C(=O)N[C@@H](CCCCN)C(=O)N2C[C@H](O)C[C@H]2C(=O)N[C@@H](Cc2c[nH]c3ccccc23)C(=O)N[C@@H](CCNC(=O)C(C)(C)C)C(=O)N[C@@H](Cc2cn(CC(=O)O)c3ccccc23)C(=O)N1C` [Example 20080] ({CH2CO}-[Phe(4-F)][Pip]DP[Dap](Piv)K[Hyp]W[Dab](Piv)[Trp(1-CH2COOH)][NMeNle][NMeNle]VC-NH2; thioether N-14) gave an IC50 of 10.7 nM.

Regarding `CCCC[C@H]1C(=O)N(C)[C@@H](CCCC)C(=O)N[C@@H](CC(C)C)C(=O)N[C@H](C(=O)NCC(N)=O)CSCC(=O)N[C@@H](Cc2ccc(O)cc2)C(=O)N(C)[C@@H](C)C(=O)N[C@@H](CC(N)=O)C(=O)N2CCC[C@H]2C(=O)N[C@@H](CNC(=O)OC(C)(C)C)C(=O)N[C@@H](CC(C)C)C(=O)N2C[C@H](O)C[C@H]2C(=O)N[C@@H](Cc2c[nH]c3ccccc23)C(=O)N[C@@H](CCNC(=O)OC(C)(C)C)C(=O)N[C@@H](Cc2cn(CC(=O)O)c3ccccc23)C(=O)N1C` [Example 1014] ({CH2CO}-Y[NMeA]NP[Dap](Boc)L[Hyp]W[Dab](Boc)[Trp(1-CH2COOH)][NMeNle][NMeNle]LCG-NH2; thioether N-14), the IC50 came out at 6.1 nM.

Values taken from US20220251141A1, “IMMUNOMODULATORS” (Bristol-Myers Squibb Company, priority 2019, published 2022).
